Laboratory results: article doi:10.1101/735704v2, “Selectivity filter instability dominates the low intrinsic activity of the TWIK-1 K2P K^+ Channel” (biorxiv, 2019)

Target: T1, TWIK-1* (K2P1.1/KCNK1, I293A/I294A trafficking mutant) (Homo sapiens, UniProt O00180, I293A/I294A)
T1 construct: full-length channel with mutated di-isoleucine endocytic retention motif (I293A/I294A), subcloned into pFAW, mRNA-injected Xenopus oocytes, giant excised inside-out patches; homodimer
T1 sequence (O00180 1-336 I293A/I294A): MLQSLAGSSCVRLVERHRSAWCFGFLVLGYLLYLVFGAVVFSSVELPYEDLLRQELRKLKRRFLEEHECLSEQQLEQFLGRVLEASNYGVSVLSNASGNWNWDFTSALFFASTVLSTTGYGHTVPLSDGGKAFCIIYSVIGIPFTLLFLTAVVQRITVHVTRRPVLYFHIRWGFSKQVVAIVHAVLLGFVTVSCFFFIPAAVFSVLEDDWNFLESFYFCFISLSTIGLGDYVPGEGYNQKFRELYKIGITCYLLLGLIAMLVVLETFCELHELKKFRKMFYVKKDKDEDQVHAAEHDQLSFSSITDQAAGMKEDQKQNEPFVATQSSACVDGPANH
Assay: giant excised inside-out patch electrophysiology, Xenopus oocytes, Hill fit
Type: cell-based

IC50: 3.3 ± 0.1 µM
Structure (SMILES): CCCCC[N+](CCCCC)(CCCCC)CCCCC [tetrapentylammonium]
